Experimental data published in patent US12421229B2, “Hydropyrido[1,2-α]pyrazine compounds for the treatment of autoimmune disease” (Hoffmann-La Roche Inc., priority 2019, dated 2025).

molecular target: T1, human TLR8 (Homo sapiens, UniProt Q9NR97); assay: HEK293-Blue-hTLR-8 cells assay; assay type: cell-based; conditions: HEK293-Blue-hTLR8 cells, R848 stimulation, 20 hrs, SEAP reporter; read-out: HEK/hTLR8 IC50
T1 construct: host or cells: HEK293 (HEK-Blue hTLR8)
T1 sequence (Q9NR97 27-1041): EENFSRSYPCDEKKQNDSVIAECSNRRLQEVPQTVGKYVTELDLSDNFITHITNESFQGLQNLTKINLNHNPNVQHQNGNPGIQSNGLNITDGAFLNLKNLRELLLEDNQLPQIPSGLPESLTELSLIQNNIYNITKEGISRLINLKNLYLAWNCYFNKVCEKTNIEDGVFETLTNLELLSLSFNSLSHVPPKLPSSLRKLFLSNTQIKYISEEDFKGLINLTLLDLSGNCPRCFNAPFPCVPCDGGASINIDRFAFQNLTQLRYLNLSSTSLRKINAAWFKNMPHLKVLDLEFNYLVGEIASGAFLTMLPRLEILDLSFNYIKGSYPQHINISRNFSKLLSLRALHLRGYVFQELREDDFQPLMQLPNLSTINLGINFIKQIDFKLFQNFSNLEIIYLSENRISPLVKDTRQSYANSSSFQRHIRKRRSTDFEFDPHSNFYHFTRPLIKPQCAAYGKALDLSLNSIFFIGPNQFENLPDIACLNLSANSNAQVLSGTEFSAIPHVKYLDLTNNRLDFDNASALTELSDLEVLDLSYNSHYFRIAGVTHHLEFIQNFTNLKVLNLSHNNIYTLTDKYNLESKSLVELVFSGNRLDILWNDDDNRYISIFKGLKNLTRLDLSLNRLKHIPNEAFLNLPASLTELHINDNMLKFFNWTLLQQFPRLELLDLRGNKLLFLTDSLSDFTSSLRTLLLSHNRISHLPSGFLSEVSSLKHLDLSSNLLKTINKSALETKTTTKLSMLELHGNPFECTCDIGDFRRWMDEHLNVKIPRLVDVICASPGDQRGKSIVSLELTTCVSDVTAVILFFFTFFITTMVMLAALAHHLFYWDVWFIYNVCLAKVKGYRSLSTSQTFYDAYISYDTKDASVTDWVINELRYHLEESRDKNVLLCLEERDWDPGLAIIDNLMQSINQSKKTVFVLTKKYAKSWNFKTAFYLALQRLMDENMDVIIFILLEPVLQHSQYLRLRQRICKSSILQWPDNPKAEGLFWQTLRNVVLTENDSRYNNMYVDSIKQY
Source text: A stable HEK293-Blue-hTLR-8 cell line was purchased from InvivoGen (Cat. #: hkb-htlr8, San Diego, California, USA). These cells were originally designed for studying the stimulation of human TLR8 by monitoring the activation of NF-κB. A SEAP (secreted embryonic alkaline phosphatase) reporter gene was placed under the control of the IFN-β minimal promoter fused to five NF-κB and AP-1-binding sites. The SEAP was induced by activating NF-κB and AP-1 via stimulating HEK-Blue hTLR8 cells with TLR8 ligands. Therefore the reporter expression was declined by TLR8 antagonist under the stimulation of a ligand, such as R848, for incubation of 20 hrs. The cell culture supernatant SEAP reporter activity was determined using QUANTI-Blue™ kit (Cat. #: rep-qb1, Invivogen, San Diego, Ca, USA) at a wavelength of 640 nm, a detection medium that turns purple or blue in the presence of alkaline phosphatase.
HEK293-Blue-hTLR8 cells were incubated at a density of 250,000˜450,000 cells/mL in a volume of 170 μL in a 96-well plate in Dulbecco's Modified Eagle's medium (DMEM) containing 4.5 g/L glucose, 50 U/mL penicillin, […], […], 2 mM L-glutamine, 10% (v/v) heat-inactivated fetal bovine serum with addition of 20 μL test compound in a serial dilution in the presence of final DMSO at 1% and 10 μL of 60 uM R848 in above DMEM, perform incubation under 37° C. in a CO2 incubator for 20 hrs. Then 20 μL of the supernatant from each well was incubated with 180 μL Quanti-blue substrate solution at 37° C. for 2 hrs and the absorbance was read at 620˜655 nm using a spectrophotometer. The signaling pathway that TLR8 activation leads to downstream NF-κB activation has been widely accepted, and therefore similar reporter assay was modified for evaluating TLR8 antagonist.

Row | IC50 | SMILES
1 | 19 nM | C[C@@H]1CN(c2ccc(C#N)c3ncccc23)C[C@@H]2C[C@H](c3ccc(N4CCNCC4)nc3)CCN21 (stereo in doubt) [Example 2, 5-[(4R,8R)-4-methyl-8-(6-piperazin-1-yl-3-pyridyl)-1,3,4,6,7,8,9,9a-octahydropyrido[1,2-a]pyrazin-2-yl]quinoline-8-carbonitrile]
2 | 30 nM | C[C@@H]1CN(c2ccc(C#N)c3ncccc23)C[C@@H]2CC(c3ccc(C[C@@H]4CNCCO4)cc3)CCN21 (stereo in doubt) [Example 25, 5-[(4R,8R,9aS)-4-methyl-8-[4-[[(2R)-morpholin-2-yl]methyl]phenyl]-1,3,4,6,7,8,9,9a-octahydropyrido[1,2-a]pyrazin-2-yl]quinoline-8-carbonitrile]
3 | 67 nM | C[C@@H]1CN(c2ccc(C#N)c3ncccc23)C[C@@H]2C[C@H](NCc3ccc(N4CCNCC4)cc3)CCN21 [Example 1, 5-[(4R,8R,9aS)-4-methyl-8-[(4-piperazin-1-ylphenyl)methylamino]-1,3,4,6,7,8,9,9a-octahydropyrido[1,2-a]pyrazin-2-yl]quinoline-8-carbonitrile]
4 | 18 nM | C[C@@H]1CN(c2ccc(C#N)c3ncccc23)C[C@@H]2C[C@H](c3ccc(N4CCNCC4)nc3)CCN21 [Example 4, 5-[(4R,8R,9aS)-4-methyl-8-(6-piperazin-1-yl-3-pyridyl)-1,3,4,6,7,8,9,9a-octahydropyrido[1,2-a]pyrazin-2-yl]quinoline-8-carbonitrile]
5 | 36 nM | C[C@@H]1CN(c2ccc(C#N)c3ncccc23)C[C@@H]2C[C@H](N3CC(c4ccc(N5CCNCC5)cc4)C3)CCN21 [Example 9, 5-[(4R,8R,9aS)-4-methyl-8-[3-(4-piperazin-1-ylphenyl)azetidin-1-yl]-1,3,4,6,7,8,9,9a-octahydropyrido[1,2-a]pyrazin-2-yl]quinoline-8-carbonitrile]

The remaining lines, values behind:

Row | SMILES | IC50
6 | C[C@@H]1CN(c2ccc(C#N)c3ncccc23)CC2C[C@H](c3ccc(N4CCNCC4)cc3)CCN21 (stereo partly drawn) [Example 3, 5-[(4R,8R)-4-methyl-8-(4-piperazin-1-ylphenyl)-1,3,4,6,7,8,9,9a-octahydropyrido[1,2-a]pyrazin-2-yl]quinoline-8-carbonitrile] | 23 nM
7 | CO[C@H]1CN(c2ccc([C@@H]3CCN4[C@@H](C3)CN(c3ccc(C#N)c5ncccc35)C[C@H]4C)cn2)C[C@@H]1N [Example 6, 5-[(4R,8R,9aS)-8-[6-[(3S,4S)-3-amino-4-methoxy-pyrrolidin-1-yl]-3-pyridyl]-4-methyl-1,3,4,6,7,8,9,9a-octahydropyrido[1,2-a]pyrazin-2-yl]quinoline-8-carbonitrile] | 47 nM
8 | C[C@@H]1CN(c2ccc(C#N)c3ncccc23)C[C@@H]2C[C@H](c3ccc(N4CC(N)C4)nc3)CCN21 [Example 7, 5-[(4R,8R,9aS)-8-[6-(3-aminoazetidin-1-yl)-3-pyridyl]-4-methyl-1,3,4,6,7,8,9,9a-octahydropyrido[1,2-a]pyrazin-2-yl]quinoline-8-carbonitrile] | 125 nM
9 | C[C@@H]1CN(c2ccc(C#N)c3ncccc23)C[C@@H]2C[C@@H](Oc3ccc(N4CCNCC4)cn3)CCN21 [Example 11, 5-[(4R,8S,9aS)-4-methyl-8-[(5-piperazin-1-yl-2-pyridyl)oxy]-1,3,4,6,7,8,9,9a-octahydropyrido[1,2-a]pyrazin-2-yl]quinoline-8-carbonitrile] | 15 nM
10 | CO[C@H]1CN(c2ccc([C@@H]3CCN4[C@@H](C3)CN(c3ccc(C#N)c5ncccc35)C[C@H]4C)cn2)C[C@H]1N [Example 12, 5-[(4R,8R,9aS)-8-[6-[(3R,4S)-3-amino-4-methoxy-pyrrolidin-1-yl]-3-pyridyl]-4-methyl-1,3,4,6,7,8,9,9a-octahydropyrido[1,2-a]pyrazin-2-yl]quinoline-8-carbonitrile] | 45 nM
